SMILES strings stand for the structures.

Common to all, as to experiment: Bliss excess, mean over the matrix (fraction); higher = more synergy
Assay [1] deals with MDA-MB-453 (Breast Carcinoma). Put shortly: (§1)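 After 24 hours at 37°C and 5% CO2 in 1536-well plates, cells in DMEM/F12 or RPMI plus 10% FBS received two-drug dose matrices for 72 hours. Viability came from CellTiter-Glo 2.0 luminescence and was scaled as inhibition, anchored at 0 by vehicle wells and at 1 by blank wells. Combination Emax is taken as the second-highest inhibition in the matrix, and Bliss excess as the observed combination effect less EA + EB − EA·EB, with EA and EB the single-agent effects.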

The subject of assay [2] is Ca-Ski (Cervical Carcinoma). Put shortly:
as §1

A further assay has as its system SK-N-AS (Neuroblastoma). Put shortly:
as §1

For assay [3], the system named is OE33 (Esophageal Adenocarcinoma). Put shortly:
as §1

The test system of assay [4] is NCI-H1355 (Lung Adenocarcinoma). A digest of the protocol: as §1
Assay [5] concerns KGN (Other Solid Carcinomas). Put shortly:
as §1

In assay [6] the test system is NCI-H1993 (Lung Adenocarcinoma). Put shortly: as §1
Assay [7] relates to DU-145 (Prostate Carcinoma). Put shortly: as §1
For assay [8], the system named is MV-4-11 (Acute Myeloid Leukemia). A digest of the protocol:
as §1

Assay [9] relates to SKN (Other Solid Carcinomas). Put shortly:
as §1

Assay [10] relates to MOG-G-UVW (Low Grade Glioma). A digest of the protocol:
as §1

Assay [11] has as its system SNU-387 (Hepatocellular Carcinoma). A digest of the protocol: as §1
The subject of assay [12] is SW982 (Other Solid Carcinomas). A digest of the protocol:
as §1

In assay [13] the test system is NCI-H522 (Lung Adenocarcinoma). Put shortly: as §1
The subject of assay [14] is COLO-668 (Small Cell Lung Carcinoma). Put shortly: as §1
Assay [15] has as its system HAL-01 (B-Lymphoblastic Leukemia). A digest of the protocol:
as §1

Assay [16] concerns EFO-21 (Ovarian Carcinoma). Put shortly:
as §1

Assay [17] deals with SW872 (Other Solid Carcinomas). A digest of the protocol:
as §1

Assay [18] relates to ML-2 (Acute Myeloid Leukemia). A digest of the protocol: as §1
In assay [19] the test system is Mo-T (Other Blood Carcinomas). A digest of the protocol:
as §1

For the compound `CN(CCO)CC[C@H](CSc1ccccc1)Nc1ccc(S(=O)(=O)NC(=O)c2ccc(N3CCC([C@@H](O)c4ccccc4-c4ccc(Cl)cc4)CC3)cc2)cc1S(=O)(=O)C(F)(F)F` [AZD4320] + C1CN(CCC1(C(=O)N[C@@H](CCO)C2=CC=C(C=C2)Cl)N)C3=NC=NC4=C3C=CN4 [Capivasertib] (first compound max 1 µM, 7x7, partner max 3 µM), the Bliss excess in [1] is -0.0534; in [2], 0.0249; in the assay with SK-N-AS (Neuroblastoma), -0.0397; in [3], -0.0575; in assay [4] it was -0.0648; in assay [5], -0.0839. The Bliss excess was -0.0592 in assay [6]; -0.0342 in assay [7]; 0.0185 in assay [8]; -0.0279 in assay [9]; -0.0318 in assay [10]; -0.0399 in [11]. The Bliss excess in assay [12] was -0.0426; in [13], -0.034; in [14], 0.034; in [15], 0.0022; in [16], -0.0827; in assay [17] it was -0.0237. For the same compound, the Bliss excess was -0.0659 in assay [18] and -0.0137 in [19].

As for `CN(CCO)CC[C@H](CSc1ccccc1)Nc1ccc(S(=O)(=O)NC(=O)c2ccc(N3CCC([C@@H](O)c4ccccc4-c4ccc(Cl)cc4)CC3)cc2)cc1S(=O)(=O)C(F)(F)F` [AZD4320] + CC(=O)O[C@H]1C(=O)[C@@]2(C)[C@H]([C@H](OC(=O)c3ccccc3)[C@]3(O)C[C@H](OC(=O)[C@H](O)[C@@H](NC(=O)c4ccccc4)c4ccccc4)C(C)=C1C3(C)C)[C@]1(OC(C)=O)CO[C@@H]1C[C@@H]2O [Paclitaxel] (first compound max 1 µM, 7x7, partner max 3 µM), the Bliss excess in assay [1] came out at 0.249; in assay [2], 0.114; in the assay with SK-N-AS (Neuroblastoma) it was 0.0584; in assay [3] it was 0.0836; in assay [4], 0.0513; in [5] it was 0.0039. Also, the Bliss excess in assay [6] is 0.0851; in assay [7] it was 0.0406; in [8], 0.0055; in [9], 0.13; in assay [10] it was -0.0104; in assay [11], 0.0767. For the same compound, the Bliss excess was 0.0272 in assay [12]; 0.0246 in [13]; 0.125 in [14]; 0.0634 in [15]; 0.0978 in assay [16]; -0.0047 in assay [17]. Moreover, the values for the Bliss excess in [18] and in assay [19] were -0.0009 and 0.163, respectively.

Regarding `CN(CCO)CC[C@H](CSc1ccccc1)Nc1ccc(S(=O)(=O)NC(=O)c2ccc(N3CCC([C@@H](O)c4ccccc4-c4ccc(Cl)cc4)CC3)cc2)cc1S(=O)(=O)C(F)(F)F` [AZD4320] + CCN(CCO)CCCOc1ccc2c(Nc3cc(CC(=O)Nc4cccc(F)c4)[nH]n3)ncnc2c1 [AZD2811] (first compound max 1 µM, 7x7, partner max 1 µM), the Bliss excess is 0.0154 in assay [1]; 0.119 in assay [2]; -0.0041 in the assay on SK-N-AS (Neuroblastoma); -0.0398 in [3]; -0.0133 in assay [4]; -0.0739 in assay [5]. In addition, the Bliss excess in assay [6] was -0.0043; in assay [7], -0.0341; in assay [8] it was 0.0064; in assay [9], 0.0383; in assay [10] it was 0.03; in assay [11], -0.0127. In addition, the Bliss excess in assay [12] was 0.0447; in assay [13], -0.0471; in [14] it was 0.0302; in assay [15], -0.0085; in [16], -0.0616; in [17], -0.0215. Besides, the Bliss excess is 0.0557 in assay [18] and -0.003 in assay [19].

On to `CN(CCO)CC[C@H](CSc1ccccc1)Nc1ccc(S(=O)(=O)NC(=O)c2ccc(N3CCC([C@@H](O)c4ccccc4-c4ccc(Cl)cc4)CC3)cc2)cc1S(=O)(=O)C(F)(F)F` [AZD4320] + C[C@@H]1COCCN1C2=NC(=NC(=C2)C3(CC3)[S@](=N)(=O)C)C4=C5C=CNC5=NC=C4 [AZD6738] (first compound max 1 µM, 7x7, partner max 10 µM), for which the Bliss excess was -0.0453 in assay [1]; -0.006 in assay [2]; -0.0421 with SK-N-AS (Neuroblastoma); -0.0295 in assay [3]; -0.0273 in [4]; -0.0198 in assay [5]. For the same compound, the Bliss excess was -0.0073 in [6]; -0.0335 in assay [7]; -0.0066 in assay [8]; -0.0394 in assay [9]; -0.0396 in assay [10]; -0.0443 in assay [11]. The Bliss excess in [12] is -0.0374; in [13], -0.0555; in [14] it was 0.0325; in assay [15] it was 0.0405; in [16], -0.0312; in assay [17] it was -0.039. In addition, the Bliss excess in assay [18] was 0.0597; in [19], 0.0358.

As for `CN(CCO)CC[C@H](CSc1ccccc1)Nc1ccc(S(=O)(=O)NC(=O)c2ccc(N3CCC([C@@H](O)c4ccccc4-c4ccc(Cl)cc4)CC3)cc2)cc1S(=O)(=O)C(F)(F)F` [AZD4320] + C[C@@H](Nc1cc(F)cc(F)c1)c1cc(C(=O)N(C)C)cc2c(=O)cc(N3CCOCC3)oc12 [AZD8186] (first compound max 1 µM, 7x7, partner max 3 µM), the Bliss excess is 0.02 in assay [1]; 0.0605 in assay [2]; 0.0214 in the assay on SK-N-AS (Neuroblastoma); -0.0082 in [3]; 0.0082 in assay [4]; 0.0014 in assay [5]. In addition, the Bliss excess is 0.0156 in assay [6]; -0.0296 in assay [7]; 0.0114 in assay [8]; 0.0522 in assay [9]; -0.086 in [10]; 0.0168 in assay [11]. Further, the Bliss excess was 0.0078 in [12]; -0.0481 in assay [13]; 0.0083 in assay [14]; 0.0337 in [15]; 0.0323 in [16]; 0.0462 in [17]. Further, the Bliss excess in [18] turned out to be 0.0182; in assay [19] it was 0.0075.

As for `CN(CCO)CC[C@H](CSc1ccccc1)Nc1ccc(S(=O)(=O)NC(=O)c2ccc(N3CCC([C@@H](O)c4ccccc4-c4ccc(Cl)cc4)CC3)cc2)cc1S(=O)(=O)C(F)(F)F` [AZD4320] + Cc1cc2ncnn2cc1Nc1ncc2c(n1)n(C1CCOCC1)c(=O)n2C [AZD7648] (first compound max 1 µM, 7x7, partner max 10 µM), the Bliss excess in [1] is -0.0409; in [2], -0.0243; in the assay with SK-N-AS (Neuroblastoma) it was -0.0399; in assay [3], -0.0489; in [4], -0.052; in assay [5], -0.103. In addition, the Bliss excess in assay [6] is -0.0205; in assay [7] it was -0.0355; in assay [8], -0.0133; in assay [9], -0.0249; in assay [10] it was -0.0412; in assay [11] it was -0.041. Moreover, the Bliss excess was 0.0065 in assay [12]; -0.0351 in [13]; -0.0431 in assay [14]; 0.0071 in assay [15]; -0.0461 in [16]; -0.0262 in [17]. Besides, the figures for the Bliss excess in assay [18] and in assay [19] were -0.0141 and -0.0057, respectively.

(Values after the supplement of paper PMC11061612.)
